Consider four molecules from ChEMBL document CHEMBL4808234, “Substituent effects of cyclic naphthalene diimide on G-quadruplex binding and the inhibition of cancer cell growth” (Bioorg Med Chem Lett, 2021).

Activity calls are given as the source filed them. The rule behind the calls is not given here.

In series [1] the test system is Quadruplex DNA. The series is described as follows: Binding affinity at TA-core G4 DNA 5'-TAGGGTTAGGGTTAGGGTTAGGG-3' (unknown origin) assessed as circular dichroism changes up to 4.5 uM by spectrophotometric method. Conditions: Homo sapiens; dose microM <=4.5. Format: nucleic-acid assay. (In general: Circular dichroism is the unequal absorption of left and right circularly polarised light.)

Series [2] has as its system Quadruplex DNA. Description: Binding affinity to TA-core G4 DNA 5'-TAGGGTTAGGGTTAGGGTTAGGG-3' (unknown origin) assessed as change in entropy measured under dilution conditions by isothermal titration calorimetry. To be noted: Homo sapiens. Format: nucleic-acid assay. On the technique in general: Isothermal titration calorimetry measures the heat released or taken up as one component is titrated into another.

The test system of series [3] is Quadruplex DNA. Description: Binding affinity to c-myc G4 DNA 5'-TGAGGGTGGGGAGGGTGGGGAA-3' (unknown origin) assessed as Gibbs free energy change measured under dilution conditions by isothermal titration calorimetry. The series is classed as nucleic-acid assay. Conditions: Homo sapiens.
Series [4] concerns Quadruplex DNA. The series is described as follows: Binding affinity to c-myc G4 DNA 5'-TGAGGGTGGGGAGGGTGGGGAA-3' (unknown origin) assessed as change in entropy measured under molecular crowding conditions by isothermal titration calorimetry. The series is classed as nucleic-acid assay. To be noted: Homo sapiens.
In series [5] the target is Telomerase reverse transcriptase (Homo sapiens) (UniProt O14746). The series is described as follows: Inhibition of telomerase in human A549 cell lysate using TA-core (5'-TAGGGTTAGGGTTAGGGTTAGGG-3') and Rev21G (5'-TCT CGT CTF CCC TAA-3') as primer by PCR stop assay. Format: subcellular.
The test system of series [6] is Quadruplex DNA. The series is described as follows: Binding affinity to c-myc G4 DNA 5'-TGAGGGTGGGGAGGGTGGGGAA-3' (unknown origin) assessed as change in enthalpy measured under dilution conditions by isothermal titration calorimetry. Conditions: Homo sapiens. Format: nucleic-acid assay.
Series [7] has as its system Quadruplex DNA. The series is described as follows: Binding affinity at c-myc G4 DNA 5'-TGAGGGTGGGGAGGGTGGGGAA-3' (unknown origin) assessed as circular dichroism changes up to 4.5 uM by spectrophotometric method. The series is classed as nucleic-acid assay. Conditions: Homo sapiens; dose microM <=4.5.
The test system of series [8] is Quadruplex DNA. The series is described as follows: Binding affinity to TA-core G4 DNA 5'-TAGGGTTAGGGTTAGGGTTAGGG-3' (unknown origin) assessed as association constant at equilibrium measured under dilution conditions by isothermal titration calorimetry. The series is classed as nucleic-acid assay. Conditions: Homo sapiens.
Series [9] relates to Quadruplex DNA. The series is described as follows: Binding affinity to c-myc G4 DNA 5'-TGAGGGTGGGGAGGGTGGGGAA-3' (unknown origin) assessed as change in enthalpy measured under molecular crowding conditions by isothermal titration calorimetry. The series is classed as nucleic-acid assay. Conditions: Homo sapiens.
In series [10] the test system is Quadruplex DNA. The series is described as follows: Binding affinity to TA-core G4 DNA 5'-TAGGGTTAGGGTTAGGGTTAGGG-3' (unknown origin) assessed as change in entropy measured under molecular crowding conditions by isothermal titration calorimetry. The series is classed as nucleic-acid assay. To be noted: Homo sapiens.
Series [11] relates to Quadruplex DNA. Description: Binding affinity to TA-core G4 DNA 5'-TAGGGTTAGGGTTAGGGTTAGGG-3' (unknown origin) assessed as change in enthalpy measured under dilution conditions by isothermal titration calorimetry. Format: nucleic-acid assay. To be noted: Homo sapiens.
Series [12] has as its system Quadruplex DNA. Description: Binding affinity to TA-core G4 DNA 5'-TAGGGTTAGGGTTAGGGTTAGGG-3' (unknown origin) assessed as Gibbs free energy change measured under dilution conditions by isothermal titration calorimetry. Format: nucleic-acid assay. To be noted: Homo sapiens.
Series [13] deals with Quadruplex DNA. The series is described as follows: Binding affinity to c-myc G4 DNA 5'-TGAGGGTGGGGAGGGTGGGGAA-3' (unknown origin) assessed as change in entropy measured under dilution conditions by isothermal titration calorimetry. The series is classed as nucleic-acid assay. Conditions: Homo sapiens.
Series [14] has as its system Quadruplex DNA. The series is described as follows: Binding affinity to TA-core G4 DNA 5'-TAGGGTTAGGGTTAGGGTTAGGG-3' (unknown origin) assessed as association constant at equilibrium measured under molecular crowding conditions by isothermal titration calorimetry. The series is classed as nucleic-acid assay. To be noted: Homo sapiens.
The test system of series [15] is Ca9-22. Description: Growth inhibition of human Ca9-22 cells incubated for 24 hrs by CCK8 assay. Format: functional, cell-based. On the technique in general: Formazan colour is commonly taken as a measure of viable cells.
Series [16] concerns Quadruplex DNA. Description: Binding affinity to c-myc G4 DNA 5'-TGAGGGTGGGGAGGGTGGGGAA-3' (unknown origin) assessed as association constant at equilibrium measured under dilution conditions by isothermal titration calorimetry. Format: nucleic-acid assay. Conditions: Homo sapiens.
Series [17] deals with Quadruplex DNA. The series is described as follows: Binding affinity to c-myc G4 DNA 5'-TGAGGGTGGGGAGGGTGGGGAA-3' (unknown origin) assessed as Gibbs free energy change measured under molecular crowding conditions by isothermal titration calorimetry. The series is classed as nucleic-acid assay. Conditions: Homo sapiens.
The subject of series [18] is Quadruplex DNA. Description: Binding affinity to TA-core G4 DNA 5'-TAGGGTTAGGGTTAGGGTTAGGG-3' (unknown origin) assessed as change in enthalpy measured under molecular crowding conditions by isothermal titration calorimetry. Format: nucleic-acid assay. Conditions: Homo sapiens.
For series [19], the system named is Quadruplex DNA. Description: Binding affinity to c-myc G4 DNA 5'-TGAGGGTGGGGAGGGTGGGGAA-3' (unknown origin) assessed as association constant at equilibrium measured under molecular crowding conditions by isothermal titration calorimetry. The series is classed as nucleic-acid assay. To be noted: Homo sapiens.
Series [20] has as its system Quadruplex DNA. Description: Binding affinity at TA-core G4 DNA 5'-TAGGGTTAGGGTTAGGGTTAGGG-3' (unknown origin) assessed as change in melting temperature by circular dichroism spectrophotometric method. Format: nucleic-acid assay. To be noted: Homo sapiens.
In series [21] the test system is Quadruplex DNA. Description: Binding affinity to TA-core G4 DNA 5'-TAGGGTTAGGGTTAGGGTTAGGG-3' (unknown origin) assessed as Gibbs free energy change measured under molecular crowding conditions by isothermal titration calorimetry. The series is classed as nucleic-acid assay. Conditions: Homo sapiens.
In series [22] the test system is Bone marrow cell. Description: Growth inhibition of human Bone marrow at 0.1 uM cell incubated for 24 hrs by CCK8 assay. The series is classed as cell-based.
Series [23] is described as follows: Growth inhibition of human NHEK cells incubated for 24 hrs by CCK8 assay. The series is classed as tissue-based.
A short description of series [24]: Growth inhibition of human NHEK cells at 0.1 uM incubated for 24 hrs by CCK8 assay. The series is classed as tissue-based. To be noted: read-out: GI.
Series [25] concerns Ca9-22. Description: Growth inhibition of human Ca9-22 cells at 0.1 uM incubated for 24 hrs by CCK8 assay. Format: functional. Conditions: read-out: GI.
The test system of series [26] is Bone marrow cell. Description: Growth inhibition of human Bone marrow cell incubated for 24 hrs by CCK8 assay. The series is classed as cell-based.

Chain of Telomerase reverse transcriptase (Homo sapiens) (O14746 whole entry): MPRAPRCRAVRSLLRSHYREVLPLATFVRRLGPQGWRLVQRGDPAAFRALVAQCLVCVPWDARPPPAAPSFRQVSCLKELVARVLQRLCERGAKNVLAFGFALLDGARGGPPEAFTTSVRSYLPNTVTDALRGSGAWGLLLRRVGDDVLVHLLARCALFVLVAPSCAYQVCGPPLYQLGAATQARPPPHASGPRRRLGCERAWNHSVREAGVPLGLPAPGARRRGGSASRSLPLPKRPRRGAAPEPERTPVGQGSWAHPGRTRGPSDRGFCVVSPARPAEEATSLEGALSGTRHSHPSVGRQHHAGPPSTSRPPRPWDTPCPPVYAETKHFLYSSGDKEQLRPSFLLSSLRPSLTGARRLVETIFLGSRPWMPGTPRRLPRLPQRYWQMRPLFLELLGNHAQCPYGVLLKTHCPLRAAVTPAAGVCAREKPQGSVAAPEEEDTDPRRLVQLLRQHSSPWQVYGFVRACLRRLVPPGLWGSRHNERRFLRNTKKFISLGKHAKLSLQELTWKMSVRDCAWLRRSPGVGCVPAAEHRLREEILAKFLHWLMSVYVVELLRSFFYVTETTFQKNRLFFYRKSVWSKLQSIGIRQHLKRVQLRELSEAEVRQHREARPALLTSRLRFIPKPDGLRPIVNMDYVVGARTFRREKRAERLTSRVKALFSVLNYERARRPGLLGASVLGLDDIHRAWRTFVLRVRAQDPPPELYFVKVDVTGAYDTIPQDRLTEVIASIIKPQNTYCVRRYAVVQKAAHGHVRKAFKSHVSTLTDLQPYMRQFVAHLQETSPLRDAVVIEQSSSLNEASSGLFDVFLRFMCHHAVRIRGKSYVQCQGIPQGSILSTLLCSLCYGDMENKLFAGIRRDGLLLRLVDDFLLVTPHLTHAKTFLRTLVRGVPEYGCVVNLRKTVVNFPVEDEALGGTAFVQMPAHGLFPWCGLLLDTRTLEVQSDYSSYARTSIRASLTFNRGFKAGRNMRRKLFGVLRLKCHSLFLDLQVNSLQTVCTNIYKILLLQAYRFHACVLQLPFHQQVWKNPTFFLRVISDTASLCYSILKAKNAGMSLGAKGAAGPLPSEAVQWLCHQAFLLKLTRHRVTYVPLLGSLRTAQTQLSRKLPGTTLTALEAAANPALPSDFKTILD

One may read the ΔTm as the change in melting temperature against a reference sample. Regarding `CN1CCCNC(=O)CC(C)(C)CC(=O)NCCCN(C)CCCN2C(=O)c3ccc4c5c(ccc(c35)C2=O)C(=O)N(CCC1)C4=O`, the result with Quadruplex DNA [1], with Quadruplex DNA [7] and with Ca9-22 [15] was Active. In addition, the -TdeltaS in the series with Quadruplex DNA [2] was found to be 2.5 kcal/mol; in the series with Quadruplex DNA [4] it was 41 kcal/mol; in the series on Quadruplex DNA [10] it was 21 kcal/mol; in the series with Quadruplex DNA [13] it was 2.3 kcal/mol. For the same molecule, the deltaG in the series with Quadruplex DNA [3] was -8.7 kcal/mol; in the series on Quadruplex DNA [12], -8.5 kcal/mol; with Quadruplex DNA [17], -7.6 kcal/mol; with Quadruplex DNA [21], -8 kcal/mol. Besides, in series [5], the inhibition result was “Active”. Besides, the deltaH in the series on Quadruplex DNA [6] was -11 kcal/mol; in the series on Quadruplex DNA [9], -48 kcal/mol; with Quadruplex DNA [11] it was -11 kcal/mol; with Quadruplex DNA [18] it was -29 kcal/mol. The Ka in the series on Quadruplex DNA [8] came out at 1.7e+06 M⁻¹; in the series on Quadruplex DNA [14], 700000 M⁻¹; in the series with Quadruplex DNA [16], 2.6e+06 M⁻¹; with Quadruplex DNA [19], 400000 M⁻¹. Also, the ΔTm in the series with Quadruplex DNA [20] is 10 °C.
Turning to `CN1CCCNC(=O)c2cccc(c2)C(=O)NCCCN(C)CCCN2C(=O)c3ccc4c5c(ccc(c35)C2=O)C(=O)N(CCC1)C4=O`, the result with Quadruplex DNA [1], with Quadruplex DNA [7] and in the series on Ca9-22 [15] was Active. The -TdeltaS in the series on Quadruplex DNA [2] is 0.36 kcal/mol; with Quadruplex DNA [4] it was 45 kcal/mol; with Quadruplex DNA [10] it was 27 kcal/mol; in the series on Quadruplex DNA [13], 1.3 kcal/mol. Also, the deltaG in the series on Quadruplex DNA [3] is -8.7 kcal/mol; in the series with Quadruplex DNA [12], -8.6 kcal/mol; with Quadruplex DNA [17], -8 kcal/mol; in the series with Quadruplex DNA [21], -8 kcal/mol. In addition, the inhibition result in series [5] is “Active”. For the same molecule, the deltaH was -10 kcal/mol in the series on Quadruplex DNA [6], -53 kcal/mol in the series with Quadruplex DNA [9], -9 kcal/mol in the series with Quadruplex DNA [11] and -35 kcal/mol in the series on Quadruplex DNA [18]. Also, the Ka in the series with Quadruplex DNA [8] stood at 2.2e+06 M⁻¹; with Quadruplex DNA [14], 700000 M⁻¹; in the series on Quadruplex DNA [16], 2.4e+06 M⁻¹; in the series on Quadruplex DNA [19], 800000 M⁻¹. Also, in the series with Quadruplex DNA [20], the ΔTm was found to be 10 °C.
`CN1CCCNC(=O)CCCC(=O)NCCCN(C)CCCN2C(=O)c3ccc4c5c(ccc(c35)C2=O)C(=O)N(CCC1)C4=O`: the result in the series on Quadruplex DNA [1], with Quadruplex DNA [7] and with Ca9-22 [15] was Active. Also, the -TdeltaS in the series with Quadruplex DNA [2] was -0.4 kcal/mol; in the series with Quadruplex DNA [4], 12 kcal/mol; in the series on Quadruplex DNA [10], 14 kcal/mol; with Quadruplex DNA [13], 2.9 kcal/mol. Also, the deltaG in the series on Quadruplex DNA [3] is -8.1 kcal/mol; with Quadruplex DNA [12], -8.9 kcal/mol; with Quadruplex DNA [17] it was -8.5 kcal/mol; in the series on Quadruplex DNA [21], -8.6 kcal/mol. For the same molecule, in [5], the inhibition result was “Active”. Also, the deltaH in the series on Quadruplex DNA [6] was -11 kcal/mol; with Quadruplex DNA [9], -20 kcal/mol; in the series on Quadruplex DNA [11], -8.5 kcal/mol; in the series on Quadruplex DNA [18] it was -22 kcal/mol. For the same molecule, the Ka with Quadruplex DNA [8] came out at 3.4e+06 M⁻¹; in the series on Quadruplex DNA [14] it was 1.9e+06 M⁻¹; in the series on Quadruplex DNA [16] it was 1.1e+06 M⁻¹; in the series on Quadruplex DNA [19], 1.6e+06 M⁻¹. The ΔTm in the series with Quadruplex DNA [20] was 10 °C.
Take `CN1CCCNC(=O)CC2(CCCCC2)CC(=O)NCCCN(C)CCCN2C(=O)c3ccc4c5c(ccc(c35)C2=O)C(=O)N(CCC1)C4=O`: the result in the series with Quadruplex DNA [1], in the series with Quadruplex DNA [7] and with Ca9-22 [15] was Active. For the same molecule, the -TdeltaS was determined as 4.4 kcal/mol with Quadruplex DNA [2], 12 kcal/mol in the series on Quadruplex DNA [4], 35 kcal/mol with Quadruplex DNA [10] and 4.7 kcal/mol in the series with Quadruplex DNA [13]. Moreover, the deltaG in the series with Quadruplex DNA [3] was -9.3 kcal/mol; in the series with Quadruplex DNA [12] it was -8.6 kcal/mol; with Quadruplex DNA [17], -8 kcal/mol; in the series with Quadruplex DNA [21], -7.9 kcal/mol. In addition, the Activity result (in the series with Bone marrow cell [22]; in series [23]; in the series with Bone marrow cell [26]) was “Non-Toxic” each time. The inhibition result in series [5] was “Active”. Moreover, the deltaH with Quadruplex DNA [6] was -14 kcal/mol; in the series on Quadruplex DNA [9], -20 kcal/mol; with Quadruplex DNA [11], -13 kcal/mol; in the series on Quadruplex DNA [18], -43 kcal/mol. The Ka with Quadruplex DNA [8] was 1.5e+06 M⁻¹; in the series with Quadruplex DNA [14], 600000 M⁻¹; in the series with Quadruplex DNA [16], 6.2e+06 M⁻¹; in the series on Quadruplex DNA [19] it was 700000 M⁻¹. Besides, the inhibition at 24 h, 0.1 µM in series [24] was determined as 40%. The inhibition of growth at 0.1 µM in the series with Ca9-22 [25] was above 70%. In the series with Quadruplex DNA [20], the ΔTm was 10 °C.
